PubChem BioAssay AID2252 (Southern Research Specialized Biocontainment Screening …, 2010)

Tested on: THP-1 viability, CellTiter-Glo luminescence, 72 h
Test: PubChem AID 2252

Structure (SMILES) | EC50 [µM]
CCCCCc1ccc(OCCCC[n+]2cccc(C)c2)c(CCCCC)c1 | 1.05
CC[n+]1c(/C=C/N(C)c2ccccc2)n(-c2ccccc2)c2ccc(-c3nc4ccccc4s3)cc21 | 0.44
Cc1cc(Cl)c(OCCCNCc2ccccc2)c(Br)c1 | 21.4
Oc1cccc(Nc2nc(NCC3CCCO3)c3ccccc3n2)c1 (centres undefined) | 1.36
OCCN1CCN(CCCN2c3ccccc3Sc3ccc(Cl)cc32)CC1 | 12.5
CN(C)c1ccc(O)c2c1CC1CC3C(N(C)C)C(=O)C(C(N)=O)=C(O)[C@@]3(O)C(=O)C1=C2O (some centres undefined) | 33.7
C#CCOCCOCCOCCNc1nc(N2CCN(C(=O)CCCCCCCCCCNC(=O)[C@H]([C@@H](C)CC)n3cc(CCCCN=C(N)N)nn3)CC2)nc(N2CCN(C(=O)CCCCCCCCCCNC(=O)[C@@H]([C@H](C)O)n3cc(C)nn3)CC2)n1 | 2.98
Cc1ccc(Cn2c(=N)n(CC(O)COc3ccccc3)c3ccccc32)cc1 (centres undefined) | 6.08
O=C(C[n+]1cc(-c2ccc(Cl)cc2)n2c1CCC2)N1c2ccccc2Sc2ccccc21 | 15.4
OCCN1CCN(Cc2cc(Cl)c3cccnc3c2O)CC1 | 7.5
O=C(CCN1CCOCC1)c1ccc(Br)cc1 | 43.2
O=C(/C=C/c1ccccc1)c1cc(Br)ccc(=O)c1O | 10.5
Cc1ccc(-c2c[n+](CC(=O)Nc3nc(-c4ccccc4)cs3)c3n2CCC3)cc1 | 13.5
CCC(C)(C)c1ccc(OCCCC[n+]2ccccc2)c(C(C)(C)CC)c1 | 0.97
COc1ccc(NC(=O)CC2Sc3ncnn3C2=O)cc1 (centres undefined) | 46.5
Cc1cc(OCC(O)CNC(C)c2ccccc2)ccc1C(C)C (centres undefined) | 13.4
CCCN1CCC(NCc2cn(C)nc2-c2ccc(Oc3ccccc3)cc2)CC1 | 9.72
Nc1c2ccccc2nc2ccccc12 | 4.83
Nc1nonc1C(=O)N/N=C/c1cc(Br)ccc1O | 4.18
O=C(/C=C/c1ccccc1)c1ccc(NC2=NCCCS2)cc1 | 27.4
C#CCOCCOCCOCCNc1nc(N2CCN(C(=O)CCCCCCCCCCNC(=O)[C@H](CCCCN)n3cc(C[C@@H](C)CC)nn3)CC2)nc(N2CCN(C(=O)CCCCCCCCCCNC(=O)[C@@H]([C@H](C)O)n3cc(C)nn3)CC2)n1 | 6.17
CN(C)c1ccc(O)c2c1CC1CC3[C@@H](N(C)C)C(=O)C(C(N)=O)=C(O)[C@]3(O)C(=O)C1=C2O (some centres undefined) | 30.3

Structure (SMILES) | EC50 [µM]
CC(C)[C@H](NC(=O)c1ccccc1Cl)C(=O)Nc1nc(-c2ccccn2)cs1 | 6.18
O=C(Nc1nnc(-c2cccs2)o1)c1cccc(F)c1 | 16.9
O=C(NNC(=S)NC(=O)c1ccccc1)c1ccc(O)cc1 | 14.3
Cc1ccc(Cn2c(=N)c(C(=O)NCc3ccco3)cc3c(=O)n4ccccc4nc32)cc1 | 42.6
O=C(Nc1nnc(-c2cccs2)o1)c1cccc(C(F)(F)F)c1 | 14.3
O=C(Nc1ccccc1)Nc1cccc(Cl)c1 | 43.7
N#Cc1ccc(C2=NC(C(F)(F)F)(C(F)(F)F)c3c(n(Cc4ccco4)c(=O)[nH]c3=O)N2)cc1 | 31.2
CCOC(=O)CNC(=O)Cn1c(C)cc2ccccc2c1=O | 40.9
CC1CCN(CC(CS(=O)(=O)c2ccc([N+](=O)[O-])cc2)N2CCC(C)CC2)CC1 (centres undefined) | 14.6
O=C(N/N=C/c1c(O)ccc2ccccc12)c1ccc(CO)nc1 | 1.41
C[C@@H](NC(=O)/C(C#N)=C/c1ccc(O)c(O)c1)c1ccccc1 | 15.2
CCc1ccc(NC(=O)C[n+]2cc(-c3ccc(C)cc3)n3c2CCC3)cc1 | 5.71
NC(N)=N/N=C/c1ccc(OCc2ccc(Cl)cc2Cl)cc1 | 5.86
COc1ccc(OCc2n(CC(=O)OC3CC(C)CCC3C(C)C)c3ccccc3[n+]2C)cc1 (centres undefined) | 1.63
C#CCOCCOCCOCCNc1nc(N2CCN(C(=O)CCCCCCCCCCNC(=O)Cn3cc(CCCCCN)nn3)CC2)nc(N2CCN(C(=O)CCCCCCCCCCNC(=O)[C@H]([C@@H](C)CC)n3cc(CCCCCN)nn3)CC2)n1 | 14.5
Cc1ccc(-c2nc(C(=O)NCCCN(C)C)cc3c2[nH]c2ccccc23)cc1 | 10.7
COc1cccc(CNCCc2c[nH]c3ccccc23)c1OCc1ccccc1 | 6.18
CC1CCC(C(C)C)C(OC(=O)Cn2c(-c3ccc(Cl)cc3)[n+](C)c3ccccc32)C1 (centres undefined) | 2.22
CCCCOc1ccc(Br)cc1CSC(=N)N | 5.93
CCc1nc(N)nc(N)c1-c1ccc(Cl)cc1 | 10.5
CCCCCCCNC(=O)C1(CC2CC(c3cccc(Br)c3)=NO2)CCNCC1 (centres undefined) | 7
COc1cc2c(cc1OC)[C@H](Cc1ccc(O)cc1)NCC2 | 23.4

Structure (SMILES) | EC50 [µM]
CCc1ccc(-c2nn(-c3ccccc3)cc2CSC(=N)N)cc1 | 5.18
O=C(N/N=C\C=C\c1ccc([N+](=O)[O-])o1)c1cccs1 | 34.8
O=C(N/N=C/c1ccccn1)c1cccs1 | 26.4
Nc1nc(F)nc2c1ncn2[C@@H]1O[C@H](CO)[C@@H](O)[C@H]1O | 0.35
O=C(N/N=C/c1c[nH]c2ccccc12)c1cc2ccccc2o1 | 21.3
COc1ccc(CCN2CCC(Nc3nc4ccccc4n3Cc3ccc(F)cc3)CC2)cc1 | 3.8
Cc1ccc2cc(CN(CCN(C)C)C(=O)Nc3ccc(Cl)cc3)c(=O)[nH]c2c1 | 19.1
CCc1ccc2c(c1)C1(NN=C(c3ccc(C)cc3)S1)C(=O)N2 (centres undefined) | 9.42
Cc1cc(C)nc(/N=C(\N)Nc2ccc(SC(F)F)cc2)n1 | 12.8
C=CCn1c(NS(=O)(=O)c2ccccc2)c(S(=O)(=O)c2ccc(C)cc2)c2nc3ccccc3nc21 | 40.9
CC(=O)NCc1ccc(C(=O)CCl)cc1 | 33.3
CC(C)(C)c1ccc(OCCCNC2CCCC2)cc1 | 19.9
CC1CCN(c2nc3ccc(C(=O)NCCCN4CCCCC4)cc3s2)CC1 | 30.7
CN1CCC(=C2c3ccccc3C=Cc3ccccc32)CC1 | 41.3
COc1ccccc1Nc1nc(Cl)c(C=O)s1 | 21.1
Cc1nonc1C(=O)N/N=C/c1ccc(O)cc1O | 8.05
O=C(N/N=C\c1cccc([N+](=O)[O-])c1O)C1COc2ccccc2O1 (centres undefined) | 25.4
O=C(C[n+]1cc(-c2ccccc2)n2c1CCC2)Nc1nc(-c2ccc(F)cc2)cs1 | 32.4
CC(/C=N/Nc1nc2ccccc2[nH]1)=C\c1ccccc1 | 33.4
c1ccc2c(NCCc3c[nH]c4ccccc34)c3ccccc3nc2c1 | 4.35
COc1ccc(Nc2nc(-c3ccccc3)nc3ccccc23)cc1S(=O)(=O)N1CCOCC1 | 39
COC(=O)C1=C(C)N(Cc2ccccc2)C(=NCc2cccc(C(F)(F)F)c2)N[C@H]1c1cccc(F)c1 | 5.3

Structure (SMILES) | EC50 [µM]
CCN1CCN(Cc2ccc(NC(=O)c3ccc(C)c(NC(=O)c4c[nH]c5cc(C(F)(F)F)ccc5c4=O)c3)cc2C(F)(F)F)CC1 | 2.04
c1ccc2cc(CSCc3nc4ccccc4[nH]3)ccc2c1 | 48.5
c1ccc(CNc2nc(-c3ccccn3)nc3ccccc23)cc1 | 1.72
CCCCCOc1ccc(CSC2=NCCN2)cc1[N+](=O)[O-] | 20
O=C(CN1C2=NCCN2c2ccccc21)c1ccco1 | < 0.1
Cc1ccc(OCC(=O)N/N=C\c2c(C)[nH]n(-c3ccccc3)c2=O)c([N+](=O)[O-])c1 | 6.86
O=C(NNc1nc2ccc(F)cc2s1)c1cccc(F)c1 | 8.07
C/C(=N\NC(=O)c1cccc(Br)c1)c1ccccn1 | 1.55
CCc1nc(SCC(=O)Nc2ccc(N(C)C)cc2)c2ccccc2n1 | 35.3
Nc1nc2ccccc2n1CCOc1ccccc1Cl | 16.6
Cc1cc(N2CCC(C)CC2)nc(NCc2ccccc2)n1 | 6.23
COc1ccc2[nH]cc(C(=O)CCl)c2c1 | 7.78
CC1(C)N=C(N)N=C(N)N1c1ccc(Oc2ccc(Cl)cc2)c(Cl)c1 | 2.45
CCCCCCCCCCCCCCCC[n+]1ccc(C(N)=O)cc1 | 0.68
CCN(CC)CCn1c(=N)n(CC(O)COc2cccc(C)c2)c2ccccc21 (centres undefined) | 16.2
OC(CNCCc1ccc(Cl)cc1Cl)COc1ccccc1 (centres undefined) | 29.2
O=C1C(SCCO)=C(SCCO)C(=O)c2ccccc21 | 3.62
CCN(CC)c1ccc(/C=N/NC(=O)c2ccc3nc[nH]c3c2)c(O)c1 | 0.9
O=[N+]([O-])c1cc(/C=N/Nc2nc3ccccc3[nH]2)c(O)cc1O | 1.7
CCCCCCCSc1cc(OC)c(CCNC)cc1OC | 10.2
Cc1ccc(C[n+]2c(-c3ccc(C)cc3)cc(-c3ccc(C)cc3)cc2-c2ccc(C)cc2)cc1 | 0.22
Cc1ccccc1C(=O)N/N=C/c1ccc([N+](=O)[O-])s1 | 16.8

Structure (SMILES) | EC50 [µM]
NC1=C(Br)C(=O)c2ccccc2C1=O | 9
COc1ccccc1Nc1nc(NCc2ccco2)c2ccccc2n1 | 13.3
CCN1CCN(CCNC(=O)c2ccc(/C=C3/Sc4ccccc4N(Cc4cccc(Cl)c4)C3=O)cc2)CC1 | 8.93
CNC[C@H](Cc1ccccc1)NC[C@@H](Cc1cccc2ccccc12)NCCc1ccc(C)cc1 | 4.01
COc1c(N2CCN(C(=S)NCc3ccccc3)C(C)C2)c(F)cc2c(=O)c(C(=O)O)cn(C3CC3)c12 (centres undefined) | 17.9
COc1ccc(CSCCN)cc1Cl | 44.9
Cc1ccc(-c2csc(N=C(N)N)n2)c(C)c1 | 26.9
S=C1SCN(Cc2cccnc2)CN1Cc1cccnc1 | 3.92
Nc1cccc2nc3ccccc3cc12 | 5.32
C#CCOCCOCCOCCNc1nc(N2CCN(C(=O)CCCCCCCCCCNC(=O)[C@H](CCCCN)n3cc(CCO)nn3)CC2)nc(N2CCN(C(=O)CCCCCCCCCCNC(=O)[C@H](CCCCN)n3cc(C[C@@H](C)CC)nn3)CC2)n1 | 12.9
Cc1cc(/C=C\c2ccc3cc(N(C)C)ccc3[n+]2C)c(C)n1-c1ccccc1 | 4.95
CCCCCCOC(=O)C[N+](C)(C)CCOC1CC2CCC1(C)C2(C)C (centres undefined) | 2.08
CCCCCCCCCC[N+](C)(C)CC/C=C1/c2ccccc2Sc2ccc(Cl)cc21 | 1.99
CSc1ccc2c(c1)C(N1CCN(C)CC1)Cc1ccc(F)cc1S2 (centres undefined) | 5.63
O=C(Nc1cccc(NC(=O)c2ccccc2Cl)c1)c1ccc([N+](=O)[O-])o1 | 2.11
O=c1c(O)cccc2cc(O)c(O)c(O)c12 | 24.2
Oc1ccc(CN2CCN(Cc3ccccc3)CC2)c2cccnc12 | 9.96
Cc1c2ccncc2c(C)c2c1[nH]c1ccccc12 | 2.72
COc1ccccc1C(C[N+](=O)[O-])c1c(N)n(C)c(=O)n(C)c1=O (centres undefined) | 8.91
CC(C)N1CCc2c(sc(NC(=O)c3ccc(S(=O)(=O)N4CCc5ccccc54)cc3)c2C(N)=O)C1 | 8.45
COc1ccc(C(=O)NC(=S)NNC(=O)c2cnccn2)cc1OC | 6.82
